Laboratory results taken from the NIST ThermoML archive (doi:10.1016/j.jct.2010.09.008).
± gives the expanded uncertainty stated by the source.

What was measured:
[1] = relative permittivity at zero frequency (dimensionless); xn = mol fraction of the nth substance listed; details: 101.3 kPa, Liquid, AC Method
[2] = xn = mol fraction of the nth substance listed; details: 101.3 kPa, Liquid, Vibrating tube method
[3] = 101.33 kPa, Liquid, Vibrating tube method
[4] = relative permittivity at zero frequency (dimensionless); details: 101.33 kPa, Liquid, AC method

COCCOCCOCCOC [2,5,8,11-tetraoxadodecane] + CCCCCCC
relative permittivity at zero frequency ([1]; 288.15 K, x2 = 0.0502): 7.53 ± 0.15
relative permittivity at zero frequency ([1]; 288.15 K, x2 = 0.0996): 7.18 ± 0.14
relative permittivity at zero frequency ([1]; 288.15 K, x2 = 0.2037): 6.44 ± 0.13
relative permittivity at zero frequency ([1]; 288.15 K, x2 = 0.3128): 5.7 ± 0.11
relative permittivity at zero frequency ([1]; 288.15 K, x2 = 0.3994): 5.13 ± 0.1
relative permittivity at zero frequency ([1]; 288.15 K, x2 = 0.5007): 4.49 ± 0.09
relative permittivity at zero frequency ([1]; 288.15 K, x2 = 0.6027): 3.88 ± 0.08
relative permittivity at zero frequency ([1]; 288.15 K, x2 = 0.7014): 3.32 ± 0.07
relative permittivity at zero frequency ([1]; 288.15 K, x2 = 0.8007): 2.81 ± 0.06
relative permittivity at zero frequency ([1]; 288.15 K, x2 = 0.8993): 2.35 ± 0.05
relative permittivity at zero frequency ([1]; 288.15 K, x2 = 0.9502): 2.14 ± 0.04
relative permittivity at zero frequency ([1]; 298.15 K, x2 = 0.0511): 7.28 ± 0.15
relative permittivity at zero frequency ([1]; 298.15 K, x2 = 0.0992): 6.94 ± 0.14
relative permittivity at zero frequency ([1]; 298.15 K, x2 = 0.2012): 6.26 ± 0.13
relative permittivity at zero frequency ([1]; 298.15 K, x2 = 0.3025): 5.59 ± 0.11
relative permittivity at zero frequency ([1]; 298.15 K, x2 = 0.4095): 4.91 ± 0.1
relative permittivity at zero frequency ([1]; 298.15 K, x2 = 0.5014): 4.36 ± 0.09
relative permittivity at zero frequency ([1]; 298.15 K, x2 = 0.6006): 3.79 ± 0.08
relative permittivity at zero frequency ([1]; 298.15 K, x2 = 0.6989): 3.26 ± 0.07
relative permittivity at zero frequency ([1]; 298.15 K, x2 = 0.7898): 2.81 ± 0.06
relative permittivity at zero frequency ([1]; 298.15 K, x2 = 0.902): 2.31 ± 0.05
relative permittivity at zero frequency ([1]; 298.15 K, x2 = 0.9501): 2.11 ± 0.04
relative permittivity at zero frequency ([1]; 308.15 K, x2 = 0.0504): 7.04 ± 0.14
relative permittivity at zero frequency ([1]; 308.15 K, x2 = 0.1008): 6.71 ± 0.13
relative permittivity at zero frequency ([1]; 308.15 K, x2 = 0.2074): 6.01 ± 0.12
relative permittivity at zero frequency ([1]; 308.15 K, x2 = 0.3092): 5.37 ± 0.11
relative permittivity at zero frequency ([1]; 308.15 K, x2 = 0.4042): 4.8 ± 0.1
relative permittivity at zero frequency ([1]; 308.15 K, x2 = 0.5048): 4.22 ± 0.08
relative permittivity at zero frequency ([1]; 308.15 K, x2 = 0.6022): 3.69 ± 0.07
relative permittivity at zero frequency ([1]; 308.15 K, x2 = 0.7071): 3.15 ± 0.06
relative permittivity at zero frequency ([1]; 308.15 K, x2 = 0.801): 2.7 ± 0.05
relative permittivity at zero frequency ([1]; 308.15 K, x2 = 0.9016): 2.28 ± 0.05
relative permittivity at zero frequency ([1]; 308.15 K, x2 = 0.9514): 2.09 ± 0.04
mass density ([2]; 288.15 K, x2 = 0.0478): 977.7 ± 0.3 kg/m3
mass density ([2]; 288.15 K, x2 = 0.1018): 963.5 ± 0.3 kg/m3
mass density ([2]; 288.15 K, x2 = 0.2008): 936.93 ± 0.3 kg/m3
mass density ([2]; 288.15 K, x2 = 0.3046): 908.26 ± 0.3 kg/m3
mass density ([2]; 288.15 K, x2 = 0.4046): 879.55 ± 0.3 kg/m3
mass density ([2]; 288.15 K, x2 = 0.502): 850.68 ± 0.3 kg/m3
mass density ([2]; 288.15 K, x2 = 0.5988): 821.04 ± 0.3 kg/m3
mass density ([2]; 288.15 K, x2 = 0.6937): 791 ± 0.3 kg/m3
mass density ([2]; 288.15 K, x2 = 0.7981): 756.91 ± 0.31 kg/m3
mass density ([2]; 288.15 K, x2 = 0.8992): 722.88 ± 0.31 kg/m3
mass density ([2]; 288.15 K, x2 = 0.9471): 706.43 ± 0.31 kg/m3
mass density ([2]; 298.15 K, x2 = 0.0478): 968.24 ± 0.3 kg/m3
mass density ([2]; 298.15 K, x2 = 0.1018): 954.08 ± 0.3 kg/m3
mass density ([2]; 298.15 K, x2 = 0.2008): 927.56 ± 0.3 kg/m3
mass density ([2]; 298.15 K, x2 = 0.3046): 898.85 ± 0.3 kg/m3
mass density ([2]; 298.15 K, x2 = 0.4046): 870.31 ± 0.3 kg/m3
mass density ([2]; 298.15 K, x2 = 0.502): 841.51 ± 0.3 kg/m3
mass density ([2]; 298.15 K, x2 = 0.5988): 811.96 ± 0.3 kg/m3
mass density ([2]; 298.15 K, x2 = 0.6937): 782.03 ± 0.3 kg/m3
mass density ([2]; 298.15 K, x2 = 0.7981): 748.1 ± 0.31 kg/m3
mass density ([2]; 298.15 K, x2 = 0.8992): 714.23 ± 0.31 kg/m3
mass density ([2]; 298.15 K, x2 = 0.9471): 697.88 ± 0.31 kg/m3
mass density ([2]; 308.15 K, x2 = 0.0478): 958.76 ± 0.3 kg/m3
mass density ([2]; 308.15 K, x2 = 0.1018): 944.65 ± 0.3 kg/m3
mass density ([2]; 308.15 K, x2 = 0.2008): 918.17 ± 0.3 kg/m3
mass density ([2]; 308.15 K, x2 = 0.3046): 889.51 ± 0.3 kg/m3
mass density ([2]; 308.15 K, x2 = 0.4046): 861.04 ± 0.3 kg/m3
mass density ([2]; 308.15 K, x2 = 0.502): 832.28 ± 0.3 kg/m3
mass density ([2]; 308.15 K, x2 = 0.5988): 802.84 ± 0.3 kg/m3
mass density ([2]; 308.15 K, x2 = 0.6937): 773 ± 0.3 kg/m3
mass density ([2]; 308.15 K, x2 = 0.7981): 739.22 ± 0.31 kg/m3
mass density ([2]; 308.15 K, x2 = 0.8992): 705.5 ± 0.31 kg/m3
mass density ([2]; 308.15 K, x2 = 0.9471): 689.25 ± 0.31 kg/m3

COCCOCCOC [2,5,8-trioxanonane]
mass density ([3]; 288.15 K): 949.34 ± 0.22 kg/m3
mass density ([3]; 298.15 K): 939.35 ± 0.22 kg/m3
mass density ([3]; 308.15 K): 929.36 ± 0.22 kg/m3
relative permittivity at zero frequency ([4]; 288.15 K): 7.69 ± 0.15
relative permittivity at zero frequency ([4]; 298.15 K): 7.4 ± 0.15
relative permittivity at zero frequency ([4]; 308.15 K): 7.12 ± 0.14
